Measurements published in US20140234317A1, “METHODS FOR PREVENTING TOXIC DRUG-DRUG INTERACTIONS IN COMBINATION THERAPIES COMPRISING ANTI-ERBB3 AGENTS” (Merrimack Pharmaceuticals, Inc., priority 2011, published 2014).

How the values were obtained:
plasma protein = conditions: TKIs in clinical use; cited from earlier work
[1] = test system: alpha 1-acid glycoprotein (AAG); conditions: reported; cited from earlier work
[2] = Average plasma concentration of erlotinib co-administered with MM-121; assay type: in vivo, human; conditions: for Erlotinib Avg Conc.: plasma
Excerpt: The ability of the anti-ErbB3 agent to alter the pharmacokinetics of a co-administered AAGB or TKI can be evaluated by measuring serum drug levels and calculating pharmacokinetic parameters. Pharmacokinetic parameters referred to herein (e.g., Example 1) describe the in vivo characteristics of a drug over time. These include plasma concentration (C), as well as Cmax, Tmax, and AUC. The term “Cmax” refers to the measured plasma concentration of the active agent at the point of maximum, or peak, concentration following an administration. The term “Tmax” refers to the time from drug administration until Cmax is reached. The term “AUC” refers to the area under the curve of a graph of the measured plasma concentration of an active agent vs. time, measured from one time point to another time point. For example AUC0-t is the area under the curve of plasma concentration versus time from time 0 to time t, where time 0 is the time of initial administration of the drug. Time t can be the last time point with measurable plasma concentration for an individual drug.
Patients also received one of two different doses of erlotinib (either 100 mg or 150 mg) administered daily orally. The antibody administration began on Day 1 and continued with weekly doses and the erlotinib administration began on Day 2 and continued with daily doses. Pharmacokinetic parameters were monitored for the duration of treatment, until the patient's cancer progressed or the patient came off the study.
For the erlotinib, the average plasma concentration was measured.

Compound | plasma protein binding (plasma protein) | binding to AAG that can alter bioavailability [1] | also measured
Cc1ccc(Nc2nccc(N(C)c3ccc4c(C)n(C)nc4c3)n2)cc1S(N)(=O)=O [pazopinib] | high |  | 
CS(=O)(=O)CCNCc1ccc(-c2ccc3ncnc(Nc4ccc(OCc5cccc(F)c5)c(Cl)c4)c3c2)o1 [lapatinib] | high | significant binding | 
CCN(CC)CCNC(=O)c1c(C)[nH]c(/C=C2\C(=O)Nc3ccc(F)cc32)c1C [sunitinib] | high |  | 
COc1cc2ncnc(Nc3ccc(F)c(Cl)c3)c2cc1OCCCN1CCOCC1 [gefitinib] | high | significant binding | 
CN(C)C/C=C/C(=O)Nc1cc2c(Nc3ccc(F)c(Cl)c3)ncnc2cc1O[C@H]1CCOC1 [afatinib] | high |  | 
CNC(=O)c1cc(Oc2ccc(NC(=O)Nc3ccc(Cl)c(C(F)(F)F)c3)cc2)ccn1 [sorafenib] | high |  | 
Cc1nc(Nc2ncc(C(=O)Nc3c(C)cccc3Cl)s2)cc(N2CCN(CCO)CC2)n1 [dasatinib] | high |  | 
Cc1cn(-c2cc(NC(=O)c3ccc(C)c(Nc4nccc(-c5cccnc5)n4)c3)cc(C(F)(F)F)c2)cn1 [nilotinib] | high |  | 
C#Cc1cccc(Nc2ncnc3cc(OCCOC)c(OCCOC)cc23)c1 [Erlotinib, erlotinib] | high | significant binding | higher average plasma concentration of erlotinib ([2]; Patient 5 (12 mg/kg MM-121) vs Patient 2 (6 mg/kg MM-121), each 150 mg erlotinib): approximately 2.19 fold; higher average plasma concentration of erlotinib ([2]; Patient 8 (12 mg/kg MM-121) vs Patient 1 (6 mg/kg MM-121), each 100 mg erlotinib): approximately 2.02 fold; Erlotinib Avg Conc. ([2]; Subject 1, erlotinib 100 mg daily oral + MM-121 6 mg/kg weekly i.v.): 384 ng/mL; Erlotinib Avg Conc. ([2]; Subject 2, erlotinib 150 mg daily oral + MM-121 6 mg/kg weekly i.v.): 624 ng/mL; Erlotinib Avg Conc. ([2]; Subject 3, erlotinib 150 mg daily oral + MM-121 6 mg/kg weekly i.v.): 569 ng/mL; Erlotinib Avg Conc. ([2]; Subject 4, erlotinib 150 mg daily oral + MM-121 6 mg/kg weekly i.v.): 656 ng/mL; Erlotinib Avg Conc. ([2]; Subject 5, erlotinib 150 mg daily oral + MM-121 12 mg/kg weekly i.v.): 1370 ng/mL; Erlotinib Avg Conc. ([2]; Subject 6, erlotinib 150 mg daily oral + MM-121 12 mg/kg weekly i.v.): 1165.3 ng/mL; Erlotinib Avg Conc. ([2]; Subject 7, erlotinib 100 mg daily oral + MM-121 12 mg/kg weekly i.v.): 2395.6 ng/mL; Erlotinib Avg Conc. ([2]; Subject 8, erlotinib 100 mg daily oral + MM-121 12 mg/kg weekly i.v.): 777.5894 ng/mL; higher average plasma concentration of erlotinib ([2]; patients treated with 12 mg/kg anti-ErbB3 antibody compared to patients treated with 6 mg/kg): 2-3 fold
Cc1ccc(NC(=O)c2ccc(CN3CCN(C)CC3)cc2)cc1Nc1nccc(-c2cccnc2)n1 [imatinib] |  | significant binding | 
